Common to all, as to assay: growth of human tumour cells (NCI), 48 h
Test [1] has as its system ACHN renal.
In test [2] the test system is HL-60(TB) leukemia.
The test system of test [3] is HOP-62 NSCLC.
The test system of test [4] is HS 578T breast.
The subject of test [5] is NCI-H23 lung.
The subject of test [6] is OVCAR-4 ovarian.
In test [7] the test system is RPMI-8226 leukemia.
Test [8] deals with SK-OV-3 ovarian.
Test [9] relates to SNB-19 CNS.
For test [10], the system named is MDA-N.

The structures appear in SMILES notation.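 Briefly, cells in 96-well plates were exposed to five compound concentrations for 48 h, and endpoints were estimated by linear interpolation. Abbreviation: GI50, concentration required for 50% inhibition of growth. TGI: concentration producing complete growth inhibition.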 Where a SMILES comes first, the peptide text is derived from it. Residues, ends and D or L forms follow the SMILES beside them. [ ]: non-standard residue; d: D form. The star is where a group is joined. ξ: configuration not given here. *: point of attachment. ξF = NC(Cc1ccccc1)C(=O)O; Cbz = O=C(OCc1ccccc1)*; Boc = CC(C)(C)OC(=O)*; Aib = CC(C)(N)C(=O)O; OBn = c1ccc(CO*)cc1

Among the data in PubChem BioAssay (NCI) are GI50 and TGI values, retold here.

Regarding `COc1cc(-c2n/c(=C\c3c(O)[nH]c4cc(Cl)ccc34)cc3c2=Nc2ccccc2-3)cc(OC)c1OC`, the GI50 in test [1] was 4.49 µM; in [2], 84.4 µM; in [3] it was 2.64 µM; in test [4], 2.51 µM; in test [5] it was 3.57 µM; in test [6] it was 2.59 µM. Also, the GI50 was 67.1 µM in test [7], 3.8 µM in test [8] and 3.52 µM in [9]. The TGI was 22.2 µM in test [1]; more than 100 µM in [2]; 5.73 µM in test [3]; 19 µM in test [4]; 23.2 µM in test [5]; 6.36 µM in test [6]. Moreover, the TGI in [7] is more than 100 µM; in test [8], 11.3 µM; in test [9] it was 15.5 µM.

For the compound `CC(=O)C(CN(C)C)C(c1ccccc1)c1c(O)c2ccccc2oc1=O` (centres undefined), the TGI in test [1], in [2], in test [3], in [5], in test [6] and in [7] was more than 100 µM each time. The TGI in test [8] and in test [9] was more than 100 µM in each case.

Consider `NCCSCc1ccccc1Cl`, for which the TGI in [1] was more than 100 µM; in test [3], more than 100 µM; in test [4], more than 100 µM; in test [10], more than 100 µM; in test [5], 95 µM; in [6] it was more than 100 µM. The compound further displayed a TGI in [9] of more than 100 µM.

Take `Cc1c(N/C=C(\C#N)C(=O)c2ccc(Cl)cc2)c(=O)n(-c2ccccc2)n1C`: the TGI in test [2], in test [10], in [5], in [6], in [7] and in [8] was more than 100 µM in each case. This compound returned a TGI in [9] of more than 100 µM.

Regarding `CCOC(=O)/C=C/[C@H](O)[C@@H](O)/C=C/C(=O)OCC`, the TGI in test [1] is 60 µM; in test [3] it was 85 µM; in [4], more than 100 µM; in test [10], more than 100 µM; in [5] it was more than 100 µM; in test [6] it was more than 100 µM. Also, the results for the TGI in test [7], in test [8] and in test [9] were 44.6 µM, more than 100 µM and 58.2 µM, respectively.

As to `NC(=O)C(=O)C(c1ccccc1)S(=O)(=O)Cc1ccccc1` (centres undefined), the TGI in test [1], in [3], in test [10], in test [5], in [6] and in test [7] was more than 100 µM throughout. Moreover, the TGI in test [8] and in [9] was more than 100 µM each time.

`O=S(=O)(c1ccccc1)n1cc(C[P+](c2ccccc2)(c2ccccc2)c2ccccc2)c2ccccc21`: the TGI in [1] stood at 28.7 µM; in test [2] it was 6.84 µM; in test [3], 12.6 µM; in test [5], 17.8 µM; in [6], 22 µM; in [7] it was 18.8 µM. The TGI in test [8] stood at 7.86 µM; in test [9], 6.77 µM.

As for `Cc1ccc(N2CCN(CCC(=O)O)CC2)cc1`, the TGI in test [1], in test [3], in test [4], in test [5], in test [6] and in test [7] was more than 100 µM throughout. For the same compound, the TGI in test [8] and in test [9] was more than 100 µM throughout.

Turning to `NCCCCC(=O)c1cccnc1`, the TGI in [2], in [3], in test [5], in test [7], in test [8] and in test [9] was more than 100 µM each time.

Regarding `CN(C)S(=O)(=O)n1cnc(CO)c1`, the TGI in test [1], in [3], in [10], in test [5], in test [6] and in test [7] was more than 100 µM throughout. The TGI in test [8] and in test [9] was more than 100 µM in each case.

With `c1cncc(O[Si](Oc2cccnc2)(Oc2cccnc2)Oc2cccnc2)c1`, the TGI in [5], in test [6], in [8] and in [9] was more than 100 µM each time.

For `O=C(O)CN1CCN(CC(=O)N2CCN(C(=O)OCc3ccccc3)CC2)CCN(CC(=O)O)CCN(CC(=O)N2CCN(C(=O)OCc3ccccc3)CC2)CC1`, the TGI in test [1], in test [2], in test [3], in test [4], in [6] and in [7] was more than 100 µM throughout. Moreover, the TGI in test [8] and in test [9] was more than 100 µM in each case.

For the compound `CC(C)(C)OC/C=C1\C(=O)O[C@H]2C[C@@H](O[Si](C)(C)C(C)(C)C)C[C@@H]12`, the TGI in test [1], in [3], in test [10], in test [5], in test [6] and in test [7] was more than 100 µM each time. Further, the TGI in test [8] and in test [9] was more than 100 µM throughout.

With `Cc1ccc(N=NN(C)C(=O)C(C)N)cc1` (centres undefined), the TGI in [1], in test [2], in test [3], in [10], in test [5] and in test [6] was more than 100 µM in each case. Moreover, the TGI in [7] and in test [9] was more than 100 µM each time.

For `COc1ccccc1N=N/C(=N\NC(=O)c1ccc(C)cc1)c1ccc(N(CCC#N)CCC#N)cc1C`, the TGI was more than 100 µM in test [1]; more than 100 µM in test [3]; more than 100 µM in [4]; more than 100 µM in [10]; 94.4 µM in test [5]; more than 100 µM in [6]. Besides, the TGI in test [7], in test [8] and in test [9] was more than 100 µM in each case.

Consider `O=C(NCCN1CCCCC1)c1ccc(I)cc1`, for which the TGI in test [1], in test [3], in test [4], in test [10], in test [5] and in [6] was more than 100 µM in each case. The TGI in test [7], in test [8] and in [9] was more than 100 µM throughout.

For the compound `CC(C)C(C/C=C1/CC(CO)(COC(=O)c2ccccc2)OC1=O)C(C)C` (centres undefined), the TGI in test [1] came out at 28.2 µM; in test [3] it was 22.4 µM; in test [4], 24.3 µM; in [10], 31.2 µM; in test [5] it was 34.7 µM; in test [6], 30 µM. Moreover, the TGI in [8] was more than 100 µM; in test [9], 31.1 µM.

In the case of `SCc1ccc(CS)s1`, the TGI in [2], in test [3], in [10], in test [5], in test [6] and in test [8] was more than 100 µM throughout. The compound further returned a TGI in [9] of more than 100 µM.

Turning to `C[C@@H]1C2=CC[C@@]3(C)C(CCC3[C@H](C)[C@H]3C[C@@]4(C)O[C@@](c5cccnc5)(O3)OC4(C)C)[C@@H]2C2OC2[C@@]12CCC(=O)O2` (some centres undefined), the TGI in [1] is more than 100 µM; in test [2], 41.4 µM; in test [3] it was more than 100 µM; in test [5] it was more than 100 µM; in [7] it was more than 100 µM; in test [8] it was more than 100 µM. This compound displayed a TGI in [9] of more than 100 µM.

As for `Cc1cnc2c(c1)C(=O)C1=C(OC(C)(C)CC1O)C2=O` (centres undefined), the TGI worked out at 29 µM in test [1]; 26.3 µM in test [2]; 34 µM in [3]; 26.2 µM in test [5]; 25.6 µM in [6]; 60.6 µM in test [7]. Also, the figures for the TGI in test [8] and in test [9] were 36.5 µM and 31.6 µM, respectively.

On to `CCCCOCc1cc(CN2CCN(C)CC2)c(O)c2ncccc12`, for which the TGI in test [1] is 54.2 µM; in test [2], 13.8 µM; in [3], 41.8 µM; in test [5], 47.6 µM; in test [6] it was more than 100 µM; in test [7] it was 26.3 µM. In addition, the TGI in test [8] and in test [9] was more than 100 µM throughout.

Take `O=C(CC(=O)N1N=C(N(c2ccccc2)c2ccccc2)CC1c1ccccc1)Nc1ccc(Cl)cc1` (centres undefined): the TGI in test [1], in test [2], in [3], in test [4], in test [5] and in [6] was more than 100 µM each time. The TGI in test [7], in test [8] and in [9] was more than 100 µM each time.

For `COC(=O)[C@@H](Cc1ccccc1)N1O[C@]12CCCC[C@@H]2NC(=O)OC(C)(C)C` (some centres undefined), the TGI was 32.5 µM in [1]; 38.2 µM in test [3]; 55.8 µM in test [4]; 39.1 µM in test [10]; 51.8 µM in test [5]; more than 100 µM in [6]. In addition, the TGI in [7] and in test [9] was more than 100 µM in each case.

In the case of `COc1cc([C@@]23OC[C@@H]4[C@@H](OC[C@@H]42)c2cc4c(cc23)OCO4)cc(OC)c1OC`, the TGI in [1] is more than 100 µM; in test [3] it was more than 100 µM; in test [4], 10.5 µM; in test [10], more than 100 µM; in test [5] it was more than 100 µM; in test [6], more than 100 µM. Moreover, the TGI in [7] is more than 77.1 µM; in test [9], more than 100 µM.

In the case of `COC(=O)C1=CN(C2CCCCC2)C2(c3ccccc3)c3ccccc3C(=O)OC(=O)C12` (centres undefined), the TGI in test [1], in test [2], in test [3], in test [10], in test [5] and in test [6] was more than 100 µM each time. The TGI in test [8] and in [9] was more than 100 µM each time.

Consider `CC1(C)OCC([C@H]2CC23SCCCS3)O1` (some centres undefined), for which the TGI in test [1], in [2], in test [3], in test [5], in [6] and in test [7] was more than 100 µM in each case. Further, the TGI in test [8] and in [9] was more than 100 µM each time.

On to `COC(=O)c1c[nH]c2c1-c1cc(C(=O)OCc3ccccc3)n(S(=O)(=O)c3ccc(C)cc3)c1C(=O)C2=O`, for which the TGI was 0.761 µM in test [1]; more than 100 µM in test [2]; 1.06 µM in test [3]; 0.32 µM in test [5]; 1.08 µM in test [6]; 2.83 µM in test [7]. The values for the TGI in [8] and in test [9] were 3.1 µM and 0.505 µM, respectively.

Regarding `COC(=O)C(C)(C)NC(=O)C(Cc1ccccc1)NC(=O)C(C)(C)NC(=O)OCc1ccccc1` (centres undefined) (Cbz-[Aib]-[ξF]-[Aib]-OMe), the TGI in test [1], in [2], in test [3], in test [10], in test [6] and in test [7] was more than 100 µM in each case. Besides, the TGI in [8] and in test [9] was more than 100 µM throughout.

For `Nc1nc2ccc(OCC(O)CN3CCCCC3)cc2[n+]([O-])n1` (centres undefined), the TGI in test [1], in [2], in test [10], in test [5], in [6] and in test [7] was more than 100 µM throughout. The same compound registered a TGI in [9] of more than 100 µM.

Take `Cc1cc(=O)[nH]c(NNC(C#N)c2c(O)ccc3ccccc23)n1` (centres undefined): the TGI in test [1] was 13 µM; in test [2], 8.27 µM; in test [3], 73.8 µM; in [5], 20.5 µM; in test [6] it was 31.1 µM; in test [7], 46.5 µM. Besides, the TGI in test [8] came to 52.6 µM.

In the case of `CC1(S)CC2C(CC1Sc1ccccc1)C2(C)C` (centres undefined), the TGI in test [1], in test [2], in test [5], in test [6], in test [7] and in test [8] was more than 100 µM in each case.

As to `CC(C)CC(NC(=O)OC(C)(C)C)C(=O)N1CCCC1C(=O)OCc1ccccc1` (stereo not drawn) (Boc-Leu-Pro-OBn; configuration not given here), the TGI in test [1], in test [10], in [5], in test [6], in test [8] and in [9] was more than 100 µM throughout.
